Key:
[1] = test system: Human immunodeficiency virus; experiment: In vitro antiviral activity against human immuno deficiency virus was determined; assay type: functional, organism-based; conditions: Human immunodeficiency virus 1
[2] = target: Human immunodeficiency virus type 1 protease (Human immunodeficiency virus 1, UniProt Q72874); experiment: Inhibitory activity against HIV-1 Protease was determined

| IC50 [1] [nM] | SMILES | IC50 [2] [nM] |
| --- | --- | --- |
| 4 | CC(C)(C)NC(=O)[C@@H]1CCCC[C@H]1C[C@@H](O)[C@H](Cc1ccccc1)NC(=O)[C@H](CC(N)=O)NC(=O)c1ccc2ccccc2n1 |  |
| 2 | CC(C)(C)NC(=O)[C@@H]1C[C@@H]2CCCCC2CN1C[C@@H](O)[C@H](Cc1ccccc1)NC(=O)[C@H](CC(N)=O)NC(=O)c1ccc2ccccc2n1 (single isomer, unassigned) |  |
| 300 | CC(C)(C)NC(=O)[C@@H]1CCCCN1C[C@@H](O)[C@H](Cc1ccccc1)NC(=O)[C@H](CC(N)=O)NC(=O)OCc1ccccc1 |  |
| 40 | CC(C)(C)NC(=O)[C@@H]1CCCC[C@H]1C[C@@H](O)[C@H](Cc1ccccc1)NC(=O)[C@H](CC(N)=O)NC(=O)OCc1ccccc1 (mixture of isomers) |  |
| 1000 | CC(C)(C)NC(=O)[C@@H]1CCCC[C@@H]1C[C@@H](O)[C@H](Cc1ccccc1)NC(=O)[C@H](CC(N)=O)NC(=O)OCc1ccccc1 |  |

| SMILES | IC50 [1] [nM] | IC50 [2] [nM] |
| --- | --- | --- |
| CC(C)(C)NC(=O)[C@@H]1CCCCN1C[C@@H](O)[C@H](Cc1ccccc1)NC(=O)[C@H](CC(N)=O)NC(=O)c1ccc2ccccc2n1 | 17 | 2 |

— ChEMBL document CHEMBL1128024, “Carbocyclic analogues of hydroxyethylamine containing inhibitors of HIV proteinase” (Bioorg Med Chem Lett, 1994)
